The results in this text go back to patent US20120115845A1, “THERAPEUTIC AGENTS” (priority 2007, published 2012).

Experiment [1] addresses T1, human GHS receptor (Homo sapiens, UniProt Q92847). The experiment in a line: h bind IC50 (binding assay, Table 1). To be noted: human receptor; Table 1.
Experiment [2] has as its target T1, human GHS receptor. Description: Ghrelin IP1 agonist assay (IP1 HTRF). The experiment is classed as cell-based. Further details: expressed in transfected cells; host or cells: HEK293s. To be noted: for Emax: 2 h, agonist effect as % maximal effect of GHRP-6 (5 μM), read-out: h IP1 ag %; for EC50: HEK293s cells stably expressing human GHS receptor, 2 hours at 37° C., read-out: h IP1 ag EC50. The method in brief: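 Cells: HEK293s stably expressing human GHS receptor, in stimulation buffer containing 0.02% fatty acid free BSA.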
A general note: In TR-FRET formats the signal depends on donor and acceptor labels being close together.

Structures are written as SMILES.

T1 sequence (Q92847 whole entry): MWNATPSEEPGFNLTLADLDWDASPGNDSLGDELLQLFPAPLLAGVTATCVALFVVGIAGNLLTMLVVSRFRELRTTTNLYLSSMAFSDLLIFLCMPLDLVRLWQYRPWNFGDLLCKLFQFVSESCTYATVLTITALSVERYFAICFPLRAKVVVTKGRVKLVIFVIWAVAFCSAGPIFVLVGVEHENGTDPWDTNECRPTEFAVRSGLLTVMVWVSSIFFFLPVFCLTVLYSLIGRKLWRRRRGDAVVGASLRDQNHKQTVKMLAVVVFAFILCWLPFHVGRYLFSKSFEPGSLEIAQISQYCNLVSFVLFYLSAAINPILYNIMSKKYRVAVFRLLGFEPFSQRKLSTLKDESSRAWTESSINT

Broadly, the IC50 is the point on the concentration scale where inhibition reaches its midpoint. Low values mean greater potency in that assay, high ones weaker potency in that assay. For orientation: EC50 means the concentration at which the effect is half-maximal. Consider `CCN(CC)CCCCS(=O)(=O)c1ccc2nc(NC(=O)NC(=O)c3ccccc3Cl)sc2c1` [Example 211, 2-Chloro-N-[[6-(4-diethylaminobutylsulfonyl)benzothiazol-2-yl]carbamoyl]benzamide], for which the IC50 in experiment [1] was determined as 53.6 nM. Further, in experiment [2], the Emax was found to be 27.7% and the EC50 amounted to 9.58 nM.
`CN1CCN(CCCS(=O)(=O)c2ccc3nc(NC(=O)NC(=O)c4cc(-n5cccn5)c(Cl)cc4Cl)sc3c2)CC1` [Example 241, 2,4-dichloro-N-(6-(3-(4-methylpiperazin-1-yl)propylsulfonyl)benzo[d]thiazol-2-ylcarbamoyl)-5-(1H-pyrazol-1-yl)benzamide]: the IC50 in experiment [1] came out at 0.31 nM. Besides, in experiment [2], the Emax was 0% and the EC50 is not below 20000 nM.
Regarding `CNS(=O)(=O)c1ccc2nc(NC(=O)NC(=O)c3ccccc3Cl)sc2c1` [Example 230, 2-chloro-N-[[6-(methylsulfamoyl)-1,3-benzothiazol-2-yl]carbamoyl] benzamide], the IC50 in experiment [1] came to 19.3 nM. In experiment [2], the Emax was determined as 12.6% and the EC50 is 46.5 nM.
In experiment [1], `CCOc1ccc(Cl)c(C(=O)NC(=O)Nc2nc3ccc(S(=O)(=O)CCCN4CCN(C)CC4)cc3s2)c1` [Example 93, 2-Chloro-5-ethoxy-N-(6-(3-(4-methylpiperazin-1-yl)propylsulfonyl)benzothiazol-2-ylcarbamoyl)benzamide] displayed an IC50 of 1.7 nM. Also, in experiment [2], the Emax was 3.9% and the EC50 was determined as 30.1 nM.
As to `CS(=O)(=O)c1ccc2nc(NC(=O)NC(=O)c3cc(C4CC4)ccc3Cl)sc2c1` [Example 49, 2-Chloro-5-cyclopropyl-N-(6-(methylsulfonyl)benzothiazol-2-ylcarbamoyl)benzamide], the IC50 in experiment [1] is 12.9 nM. Moreover, in experiment [2], the Emax is 0% and the EC50 is not below 25000 nM.
`O=C(NC(=O)c1ccccc1Cl)Nc1nc2ccc(S(=O)(=O)CCCNCC3CC3)cc2s1` [Example 151, 2-Chloro-N-[[6-[3-(cyclopropylmethylamino)propylsulfonyl]benzothiazol-2-yl]carbamoyl]benzamide] gave an IC50 in experiment [1] of 10.8 nM. In experiment [2], the Emax turned out to be 74.3% and the EC50 was 2.23 nM.
For the compound `CN(C)C1CCN(c2ccc(Cl)c(C(=O)NC(=O)Nc3nc4ccc(S(C)(=O)=O)cc4s3)c2)C1` (stereo not drawn) [Example 60, 2-Chloro-5-(3-(dimethylamino)pyrrolidin-1-yl)-N-(6-(methylsulfonyl)benzothiazol-2-ylcarbamoyl)benzamide], the IC50 in experiment [1] is 33 nM. In experiment [2], the Emax is 0.647% and the EC50 was more than 25000 nM.
As to `CC(C)NS(=O)(=O)c1ccc2nc(NC(=O)NC(=O)c3ccccc3Cl)sc2c1` [Example 224, 2-chloro-N-[[6-(isopropylsulfamoyl)-1,3-benzothiazol-2-yl]carbamoyl]benzamide], the IC50 in experiment [1] was 87.8 nM. Moreover, in experiment [2], the Emax turned out to be 24.3% and the EC50 was determined as 139 nM.
Take `CN1CCN(CCCS(=O)(=O)c2ccc3nc(NC(=O)NC(=O)c4cc(-c5ccccn5)ccc4Cl)sc3c2)CC1` [Example 86, 2-Chloro-N-(6-(3-(4-methylpiperazin-1-yl)propylsulfonyl)benzothiazol-2-ylcarbamoyl)-5-(pyridin-2-yl)benzamide]: in experiment [1], the IC50 worked out at 0.7 nM. Further, in experiment [2], the Emax worked out at 0.64% and the EC50 was not below 25000 nM.
Regarding `CS(=O)(=O)c1ccc2nc(NC(=O)NC(=O)c3cc(S(N)(=O)=O)ccc3Cl)sc2c1` [Example 138, 2-Chloro-N-[(6-methylsulfonylbenzothiazol-2-yl)carbamoyl]-5-sulfamoyl-benzamide], the IC50 in experiment [1] was 448 nM. For the same compound, in experiment [2], the Emax was 0% and the EC50 is not below 25000 nM.
Consider `CN1CCN(CCCS(=O)(=O)c2ccc3nc(NC(=O)NC(=O)c4cc(N5CCCC5)ccc4Cl)sc3c2)CC1` [Example 87, 2-Chloro-N-(6-(3-(4-methylpiperazin-1-yl)propylsulfonyl)benzothiazol-2-ylcarbamoyl)-5-(pyrrolidin-1-yl)benzamide], for which the IC50 in experiment [1] was determined as 0.2 nM. Besides, in experiment [2], the Emax was found to be 0.631% and the EC50 amounted to 6560 nM.
